In patent US10072017B2, “Compounds and methods for the treatment of cystic fibrosis” (Flatley Discovery Lab, LLC, priority 2015, dated 2018):

Target: T1, CFTR (Homo sapiens, UniProt P13569, DEL508-508)
T1 construct: Primary CF airway epithelial cells were obtained from the UNC Cystic Fibrosis Tissue Procurement and Cell Culture Core; host or cells: primary CF airway epithelial cells
Test: Equivalent current assay in Primary CF airway epithelial cells (NAUC)
Format: cell-based
Conditions: 24 h, normalized to VX809 (3 μM) positive control; for Nauc @ 3 μM: 3 μM test compound; for Nauc @ 10 μM: 10 μM test compound
Outline: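 Primary CF airway epithelia differentiated ≥4 weeks at air-liquid interface, treated basolaterally 24 h at 37 °C with test compounds in combination with VX809, 0.1% DMSO vehicle. Equivalent current recorded after 5 μM benzamil, 10 μM forskolin plus 1 μM VX770, then CFTR-172/bumetanide 20 μM; vehicle-subtracted AUC normalized to 3 μM VX809 (NAUC), median of n≥4, sigmoid fit for EC50.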

T1 sequence (P13569 with tags, fused parts or gaps DEL508-508): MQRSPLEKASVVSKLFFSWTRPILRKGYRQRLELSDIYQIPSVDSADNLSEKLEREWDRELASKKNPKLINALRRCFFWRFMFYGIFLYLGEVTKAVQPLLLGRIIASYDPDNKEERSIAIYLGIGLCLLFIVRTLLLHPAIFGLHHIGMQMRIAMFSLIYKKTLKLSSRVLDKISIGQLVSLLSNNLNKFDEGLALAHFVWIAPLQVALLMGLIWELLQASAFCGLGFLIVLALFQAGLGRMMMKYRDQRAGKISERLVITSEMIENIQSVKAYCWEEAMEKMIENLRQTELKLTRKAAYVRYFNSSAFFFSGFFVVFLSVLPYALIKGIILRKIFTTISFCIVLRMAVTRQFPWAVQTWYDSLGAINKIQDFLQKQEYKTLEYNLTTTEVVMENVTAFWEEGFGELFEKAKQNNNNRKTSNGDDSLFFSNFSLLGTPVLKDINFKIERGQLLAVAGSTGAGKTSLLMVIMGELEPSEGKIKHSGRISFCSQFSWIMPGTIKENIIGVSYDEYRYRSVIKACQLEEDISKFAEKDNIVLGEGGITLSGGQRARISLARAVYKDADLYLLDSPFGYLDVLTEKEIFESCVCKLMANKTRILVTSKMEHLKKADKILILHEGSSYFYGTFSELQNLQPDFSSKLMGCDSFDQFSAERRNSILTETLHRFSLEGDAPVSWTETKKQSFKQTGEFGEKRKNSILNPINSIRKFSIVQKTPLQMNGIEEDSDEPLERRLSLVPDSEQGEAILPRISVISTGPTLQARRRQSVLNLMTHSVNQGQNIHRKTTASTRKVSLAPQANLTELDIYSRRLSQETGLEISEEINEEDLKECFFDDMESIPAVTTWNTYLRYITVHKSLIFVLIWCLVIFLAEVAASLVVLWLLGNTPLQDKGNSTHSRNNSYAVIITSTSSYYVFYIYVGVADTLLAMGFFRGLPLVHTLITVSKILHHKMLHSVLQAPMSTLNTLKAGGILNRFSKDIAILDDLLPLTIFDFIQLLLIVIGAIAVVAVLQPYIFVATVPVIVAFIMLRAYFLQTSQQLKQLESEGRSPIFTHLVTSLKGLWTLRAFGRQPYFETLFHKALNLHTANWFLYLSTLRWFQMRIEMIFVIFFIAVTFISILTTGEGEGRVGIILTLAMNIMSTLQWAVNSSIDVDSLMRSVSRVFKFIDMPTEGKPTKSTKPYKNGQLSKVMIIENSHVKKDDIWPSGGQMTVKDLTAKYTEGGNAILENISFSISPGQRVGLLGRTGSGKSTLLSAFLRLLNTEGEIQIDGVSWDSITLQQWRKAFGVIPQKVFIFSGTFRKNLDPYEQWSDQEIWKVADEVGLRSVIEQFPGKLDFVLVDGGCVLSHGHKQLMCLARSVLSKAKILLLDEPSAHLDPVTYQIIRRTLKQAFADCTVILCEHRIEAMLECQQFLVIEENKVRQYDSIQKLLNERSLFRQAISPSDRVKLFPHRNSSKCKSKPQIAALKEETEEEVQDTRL

Compound | Nauc @ 3 μM | Nauc @ 10 μM
O=C1C2C3C[C@H](O)CN3C3(C(=O)Nc4ccc(C(F)(F)F)cc43)C2C(=O)N1c1cc(Cl)cc(Cl)c1 (single isomer, unassigned) [Example 61] | +++ (NAUC “+++” refers to an observed NAUC >170% of positive control) | +++ (NAUC “+++” refers to an observed NAUC >170% of positive control)
CC(=O)Oc1c(Cl)cc(Cl)cc1N1C(=O)C2C3CCCN3C3(C(=O)Nc4c(Cl)cc(Cl)cc43)C2C1=O (stereo not drawn) [Example 90] | + (NAUC “+” refers to an observed NAUC <140% of positive control) | +++ (NAUC “+++” refers to an observed NAUC >170% of positive control)
O=C1C2C(Cc3c(F)cccc3Cl)NC3(C(=O)Nc4c(Cl)cc(Cl)cc43)C2C(=O)N1c1cc(Cl)cc(Cl)c1 (stereo not drawn) [Example 217] | ++ (NAUC “++” refers to an observed NAUC 170-140% of positive control) | ++ (NAUC “++” refers to an observed NAUC 170-140% of positive control)
COc1cc(Cl)cc(N2C(=O)C3C4C[C@](C)(F)CN4C4(C(=O)Nc5c(Cl)cc(Cl)cc54)C3C2=O)c1 (stereo partly drawn) [Example 160] | + (NAUC “+” refers to an observed NAUC <140% of positive control) | ++ (NAUC “++” refers to an observed NAUC 170-140% of positive control)
CC(C)C1NC2(C(=O)Nc3c(Cl)cc(Cl)cc32)C2C(=O)N(c3cc(Cl)cc(Cl)c3)C(=O)C12 (stereo not drawn) [Example 235] | +++ (NAUC “+++” refers to an observed NAUC >170% of positive control) | +++ (NAUC “+++” refers to an observed NAUC >170% of positive control)
CC1(C)CC2C3C(=O)N(c4cc(Cl)cc(Cl)n4)C(=O)C3C3(C(=O)Nc4c(Cl)cc(Cl)cc43)N2C1 (stereo not drawn) [Example 176] | ++ (NAUC “++” refers to an observed NAUC 170-140% of positive control) | ++ (NAUC “++” refers to an observed NAUC 170-140% of positive control)
O=C1C2C3C[C@H](Cl)CN3C3(C(=O)Nc4c(Cl)cc(Cl)cc43)C2C(=O)N1c1cc(Cl)cc(Cl)c1O (stereo partly drawn) [Example 96] | ++ (NAUC “++” refers to an observed NAUC 170-140% of positive control) | + (NAUC “+” refers to an observed NAUC <140% of positive control)
COc1ccc2c(c1)NC(=O)C21C2C(=O)N(c3cc(Cl)cc(Cl)c3)C(=O)C2C2CCCN21 (stereo not drawn) [Example 98] | +++ (NAUC “+++” refers to an observed NAUC >170% of positive control) | +++ (NAUC “+++” refers to an observed NAUC >170% of positive control)
O=C1C2C3CCCN3C3(C(=O)Nc4c(Cl)cc(Cl)cc43)C2C(=O)N1c1cccc(C(F)(F)F)c1 (single isomer, unassigned) [Example 24] | +++ (NAUC “+++” refers to an observed NAUC >170% of positive control) | +++ (NAUC “+++” refers to an observed NAUC >170% of positive control)
COC(=O)c1cccc(N2C(=O)C3C4CCCN4C4(C(=O)Nc5c(Cl)cc(Cl)cc54)C3C2=O)c1 (stereo not drawn) [Example 66] | ++ (NAUC “++” refers to an observed NAUC 170-140% of positive control) | ++ (NAUC “++” refers to an observed NAUC 170-140% of positive control)
C=C1CC2C3C(=O)N(c4cc(Cl)cc(Cl)c4)C(=O)C3C3(C(=O)Nc4c(Cl)cc(Cl)cc43)N2C1 (single isomer, unassigned) [Example 144] | +++ (NAUC “+++” refers to an observed NAUC >170% of positive control) | +++ (NAUC “+++” refers to an observed NAUC >170% of positive control)
O=C1C2C3C[C@H](O)CN3C3(C(=O)Nc4c(Cl)cc(Cl)cc43)C2C(=O)N1c1cc(Cl)cc(Cl)n1 (stereo partly drawn) [Example 59] | + (NAUC “+” refers to an observed NAUC <140% of positive control) | +++ (NAUC “+++” refers to an observed NAUC >170% of positive control)
CC(=O)Oc1c(Cl)cc(Cl)cc1N1C(=O)C2C3C[C@H](F)CN3C3(C(=O)Nc4c(Cl)cc(Cl)cc43)C2C1=O (stereo partly drawn) [Example 92] | +++ (NAUC “+++” refers to an observed NAUC >170% of positive control) | + (NAUC “+” refers to an observed NAUC <140% of positive control)
COc1c(Cl)cc(N2C(=O)C3C4C[C@H](Cl)CN4C4(C(=O)Nc5c(Cl)cc(Cl)cc54)C3C2=O)cc1Cl (single isomer, unassigned) [Example 114] | +++ (NAUC “+++” refers to an observed NAUC >170% of positive control) | +++ (NAUC “+++” refers to an observed NAUC >170% of positive control)
CC1CC2C3C(=O)N(c4cc(Cl)cc(Cl)c4)C(=O)C3C3(C(=O)Nc4c(Cl)cc(Cl)cc43)N2C1 (single isomer, unassigned) [Example 72] | +++ (NAUC “+++” refers to an observed NAUC >170% of positive control) | + (NAUC “+” refers to an observed NAUC <140% of positive control)
COc1cc(Cl)cc(N2C(=O)C3C4CCCN4C4(C(=O)Nc5c(Cl)cc(Cl)cc54)C3C2=O)c1 (single isomer, unassigned) [Example 106] | +++ (NAUC “+++” refers to an observed NAUC >170% of positive control) | +++ (NAUC “+++” refers to an observed NAUC >170% of positive control)
O=C1C2C3CCCN3C3(C(=O)Nc4c(Cl)cc(Cl)cc43)C2C(=O)N1c1cc(C(F)(F)F)cc(C(F)(F)F)c1 (stereo not drawn) [Example 16] | +++ (NAUC “+++” refers to an observed NAUC >170% of positive control) | +++ (NAUC “+++” refers to an observed NAUC >170% of positive control)
Nc1ccc(CC2NC3(C(=O)Nc4c(Cl)cc(Cl)cc43)C3C(=O)N(c4cc(Cl)cc(Cl)c4)C(=O)C23)cc1 (stereo not drawn) [Example 207] | ++ (NAUC “++” refers to an observed NAUC 170-140% of positive control) | + (NAUC “+” refers to an observed NAUC <140% of positive control)
C[C@]1(O)CC2C3C(=O)N(c4ccon4)C(=O)C3C3(C(=O)Nc4c(Cl)cc(Cl)cc43)N2C1 (stereo partly drawn) [Example 234] | + (NAUC “+” refers to an observed NAUC <140% of positive control) | ++ (NAUC “++” refers to an observed NAUC 170-140% of positive control)
O=C1C2C3CC(C(F)F)CN3C3(C(=O)Nc4c(Cl)cc(Cl)cc43)C2C(=O)N1c1cc(Cl)cc(Cl)n1 (stereo not drawn) [Example 131] | + (NAUC “+” refers to an observed NAUC <140% of positive control) | ++ (NAUC “++” refers to an observed NAUC 170-140% of positive control)
O=C1C2C3CC4(CC4)CN3C3(C(=O)Nc4c(Cl)cc(Cl)cc43)C2C(=O)N1c1cc(Cl)cc(Cl)c1 (single isomer, unassigned) [Example 192] | + (NAUC “+” refers to an observed NAUC <140% of positive control) | ++ (NAUC “++” refers to an observed NAUC 170-140% of positive control)
O=C1C2C(C(=O)N1c1cc(Cl)cc(Cl)c1)C1(NC23CCC3)C(=O)Nc2c(Cl)cc(Cl)cc21 (stereo not drawn) [Example 211] | ++ (NAUC “++” refers to an observed NAUC 170-140% of positive control) | ++ (NAUC “++” refers to an observed NAUC 170-140% of positive control)
O=C1C2C(Cc3ccccc3O)NC3(C(=O)Nc4c(Cl)cc(Cl)cc43)C2C(=O)N1c1cc(Cl)cc(Cl)c1 (stereo not drawn) [Example 188] | + (NAUC “+” refers to an observed NAUC <140% of positive control) | +++ (NAUC “+++” refers to an observed NAUC >170% of positive control)
O=C1C2C3CC(=C(F)F)CN3C3(C(=O)Nc4c(Cl)cc(Cl)cc43)C2C(=O)N1c1cc(Cl)cc(Cl)c1 (single isomer, unassigned) [Example 116] | +++ (NAUC “+++” refers to an observed NAUC >170% of positive control) | +++ (NAUC “+++” refers to an observed NAUC >170% of positive control)
O=C1C2C(C(=O)N1c1cc(Cl)cc(Cl)c1)C1(NC23CC3)C(=O)Nc2c(Cl)cc(Cl)cc21 (stereo not drawn) [Example 210] | + (NAUC “+” refers to an observed NAUC <140% of positive control) | ++ (NAUC “++” refers to an observed NAUC 170-140% of positive control)
O=C1C2C3CC(=C(F)F)CN3C3(C(=O)Nc4c(Cl)cc(Cl)cc43)C2C(=O)N1c1cc(F)cc(Cl)c1 (stereo not drawn) [Example 124] | + (NAUC “+” refers to an observed NAUC <140% of positive control) | ++ (NAUC “++” refers to an observed NAUC 170-140% of positive control)
[2H]C12C(=O)N(c3cc(Cl)cc(Cl)c3)C(=O)C1([2H])C1(C(=O)Nc3c(Cl)cc(Cl)cc31)N1C[C@@H](O)CC12 (single isomer, unassigned) [Example 84] | ++ (NAUC “++” refers to an observed NAUC 170-140% of positive control) | ++ (NAUC “++” refers to an observed NAUC 170-140% of positive control)
